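Each compound was tested at five concentrations against cells in 96-well plates for 48 hours. Abbreviation: GI50, concentration required for 50% inhibition of growth.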 Activity calls are given as the source filed them. Cut-off read from the data, not from the text of the source: active = GI50 up to about 1.1 µM and inactive = higher.
Key:
Experiment in all cases: growth of human tumour cells (NCI), 48 h
IGROV-1 = tested on: IGROV-1
HOP-62 = tested on: HOP-62
M14 = tested on: M14
UACC-257 = tested on: UACC-257
SNB-78 = tested on: SNB-78
SF-295 = tested on: SF-295
Malme-3M = tested on: Malme-3M
SK-MEL-5 = tested on: SK-MEL-5
SF-539 = tested on: SF-539
SNB-75 = tested on: SNB-75
SW-620 = tested on: SW-620
XF498 = tested on: XF498
UACC-62 = tested on: UACC-62
NCI-H226 = tested on: NCI-H226
COLO 205 = tested on: COLO 205
SK-OV-3 = tested on: SK-OV-3
LOX IMVI = tested on: LOX IMVI
786-0 = tested on: 786-0
UO-31 = tested on: UO-31
M19-MEL = tested on: M19-MEL
A549 = tested on: A549
SF-268 = tested on: SF-268
DLD-1 = tested on: DLD-1
NCI-H23 = tested on: NCI-H23
NCI-H460 = tested on: NCI-H460
HCT-116 = tested on: HCT-116
OVCAR-5 = tested on: OVCAR-5
TK-10 = tested on: TK-10
ACHN = tested on: ACHN
SNB-19 = tested on: SNB-19
CCRF-CEM = tested on: CCRF-CEM
DMS-273 = tested on: DMS-273
CAKI-1 = tested on: CAKI-1
LXFL 529 = tested on: LXFL 529
U-251 = tested on: U-251
SK-MEL-2 = tested on: SK-MEL-2
NCI-H522 = tested on: NCI-H522
HCT-15 = tested on: HCT-15
DMS-114 = tested on: DMS-114
A498 = tested on: A498
SK-MEL-28 = tested on: SK-MEL-28
RPMI-8226 = tested on: RPMI-8226
SN12C = tested on: SN12C
KM12 = tested on: KM12
EKVX = tested on: EKVX
KM-20L2 = tested on: KM-20L2
HL-60 = tested on: HL-60
HOP-92 = tested on: HOP-92
OVCAR-4 = tested on: OVCAR-4
RXF 393 = tested on: RXF 393
OVCAR-3 = tested on: OVCAR-3
OVCAR-8 = tested on: OVCAR-8
HT-29 = tested on: HT-29
K562 = tested on: K562
SR = tested on: SR
HCC 2998 = tested on: HCC 2998
MOLT-4 = tested on: MOLT-4
HOP-18 = tested on: HOP-18

## CCOC(=O)C1=C(Nc2ccc(NC3=C(C(=O)OCC)C(=O)CS3)cc2)SCC1=O
IGROV-1
  GI50: 24.3 µM (inactive)
HOP-62
  GI50: 34 µM (inactive)
M14
  GI50: 20.4 µM (inactive)
UACC-257
  GI50: 22.7 µM (inactive)
SNB-78
  GI50: 33.6 µM (inactive)
SF-295
  GI50: 26.5 µM (inactive)
Malme-3M
  GI50: 18.6 µM (inactive)
SK-MEL-5
  GI50: 19.1 µM (inactive)
SF-539
  GI50: 20.1 µM (inactive)
SNB-75
  GI50: 16.6 µM (inactive)
SW-620
  GI50: 25.9 µM (inactive)
XF498
  GI50: 13.5 µM (inactive)
UACC-62
  GI50: 16.9 µM (inactive)
NCI-H226
  GI50: 19.8 µM (inactive)
COLO 205
  GI50: 17.7 µM (inactive)
SK-OV-3
  GI50: 30 µM (inactive)
LOX IMVI
  GI50: 14.2 µM (inactive)
786-0
  GI50: 14.6 µM (inactive)
UO-31
  GI50: 17.5 µM (inactive)
M19-MEL
  GI50: 21.7 µM (inactive)
A549
  GI50: 30.3 µM (inactive)
SF-268
  GI50: 22 µM (inactive)
DLD-1
  GI50: 20.7 µM (inactive)
NCI-H23
  GI50: 10 µM (inactive)
NCI-H460
  GI50: 30.1 µM (inactive)
HCT-116
  GI50: 18.5 µM (inactive)
OVCAR-5
  GI50: 22.7 µM (inactive)
TK-10
  GI50: 30.7 µM (inactive)
ACHN
  GI50: 22 µM (inactive)
SNB-19
  GI50: 32.2 µM (inactive)
CCRF-CEM
  GI50: 29.8 µM (inactive)
DMS-273
  GI50: 20.7 µM (inactive)
CAKI-1
  GI50: 14.8 µM (inactive)
LXFL 529
  GI50: 22.1 µM (inactive)
U-251
  GI50: 25.2 µM (inactive)
SK-MEL-2
  GI50: 16.5 µM (inactive)
NCI-H522
  GI50: 13.7 µM (inactive)
HCT-15
  GI50: 18.5 µM
DMS-114
  GI50: 22.6 µM (inactive)
A498
  GI50: 20.5 µM (inactive)
SK-MEL-28
  GI50: 16.8 µM (inactive)
RPMI-8226
  GI50: 18.5 µM (inactive)
SN12C
  GI50: 19.5 µM (inactive)
KM12
  GI50: 21.5 µM (inactive)
EKVX
  GI50: 35.2 µM (inactive)
KM-20L2
  GI50: 35.2 µM (inactive)
HL-60
  GI50: 32.7 µM (inactive)
HOP-92
  GI50: 24.6 µM (inactive)
OVCAR-4
  GI50: 30.9 µM (inactive)
RXF 393
  GI50: 16 µM (inactive)
OVCAR-3
  GI50: 36.7 µM (inactive)
OVCAR-8
  GI50: 27 µM (inactive)
HT-29
  GI50: 19.3 µM (inactive)
K562
  GI50: 30.5 µM (inactive)

## CN(C)c1ccc(O[Si](Oc2ccc(N(C)C)cc2)(Oc2ccc(N(C)C)cc2)Oc2ccc(N(C)C)cc2)cc1
IGROV-1
  GI50: > 100 µM (inactive)
HOP-62
  GI50: > 100 µM (inactive)
M14
  GI50: > 100 µM (inactive)
UACC-257
  GI50: 85.1 µM (inactive)
SF-295
  GI50: 86.3 µM (inactive)
Malme-3M
  GI50: > 100 µM (inactive)
SK-MEL-5
  GI50: > 100 µM (inactive)
SF-539
  GI50: > 100 µM (inactive)
SNB-75
  GI50: > 100 µM (inactive)
SW-620
  GI50: > 100 µM (inactive)
XF498
  GI50: 44.4 µM (inactive)
UACC-62
  GI50: > 100 µM (inactive)
NCI-H226
  GI50: > 100 µM (inactive)
COLO 205
  GI50: 52.7 µM (inactive)
SK-OV-3
  GI50: > 100 µM (inactive)
LOX IMVI
  GI50: 79.1 µM (inactive)
786-0
  GI50: > 100 µM (inactive)
UO-31
  GI50: > 100 µM (inactive)
M19-MEL
  GI50: > 100 µM (inactive)
A549
  GI50: > 100 µM (inactive)
SF-268
  GI50: > 100 µM (inactive)
DLD-1
  GI50: > 100 µM (inactive)
NCI-H23
  GI50: 99.5 µM (inactive)
SR
  GI50: > 100 µM (inactive)
HCT-116
  GI50: > 100 µM (inactive)
OVCAR-5
  GI50: > 100 µM (inactive)
TK-10
  GI50: > 100 µM (inactive)
ACHN
  GI50: > 100 µM (inactive)
SNB-19
  GI50: > 100 µM (inactive)
CCRF-CEM
  GI50: 40.8 µM (inactive)
HCC 2998
  GI50: 79.6 µM (inactive)
CAKI-1
  GI50: > 100 µM (inactive)
LXFL 529
  GI50: 50.9 µM (inactive)
MOLT-4
  GI50: 98.2 µM (inactive)
U-251
  GI50: 89.3 µM (inactive)
NCI-H522
  GI50: 25.7 µM (inactive)
DMS-114
  GI50: 46.5 µM (inactive)
A498
  GI50: > 100 µM (inactive)
SK-MEL-28
  GI50: > 100 µM (inactive)
RPMI-8226
  GI50: > 100 µM (inactive)
SN12C
  GI50: 96.8 µM (inactive)
KM12
  GI50: 71.6 µM (inactive)
EKVX
  GI50: > 100 µM (inactive)
KM-20L2
  GI50: > 100 µM (inactive)
HL-60
  GI50: 32.9 µM (inactive)
HOP-92
  GI50: > 100 µM (inactive)
OVCAR-4
  GI50: > 100 µM (inactive)
HOP-18
  GI50: > 100 µM (inactive)
OVCAR-3
  GI50: 51.6 µM (inactive)
OVCAR-8
  GI50: 52.8 µM (inactive)
HT-29
  GI50: > 100 µM (inactive)
K562
  GI50: > 100 µM (inactive)

Source: ChEMBL document CHEMBL1201862, “PubChem BioAssay data set” (2004)
